From US11845084B2, “Microchip high density hanging drop three-dimension culture platform” (The Board of Trustees of the University of Illinois, priority 2020, dated 2023)

Legend:
[1] = tested on: LN229 microcancer spheroids; assay: On-chip drug testing of LN229 microcancer spheroids in microchip hanging drop 3D culture; type: cell-based; details: Homo sapiens, LN-229; measured on day 9 post cell seeding; drug loaded on day 3; 500 cells/well; 12 wells per concentration, 10 uM to 100 pM
Source text: In contrast, conventional hanging drop methods used to extract the formed tumor spheroids and then performing an end-point only analysis in a separate well plate. Dasatinib was selected for drug testing, and introduced after 3 days of culture in the chip. […] One process for introducing the drugs on chip is as follows. The chip was kept upright inside mineral oil and centrifuged briefly to bring down the spheroids. Next, appropriate volume of media with drugs is loaded on chip through oil and incubated for 30 minutes to reach a homogeneous concentration. […] The chip was partitioned as before by using oil, inverted, and daily measurements of green and red fluorescence were taken. […]
The total number of cells were extracted from the off-chip culture into a 1.7 mL tube and then centrifuged at 200 g for 5 min so that all cells settle to the bottom of the tube. […] To stop the PKH 26 Red Fluorescence staining, media with FBS was added to the cell and dye solution. […]
Spheroid Imaging: Real time imaging was done daily after seeding with an upright Olympus BX63 fluorescence microscope with a 10× objective (0.3 NA). […] Tiles and Z-stacks of 10 um slice thickness of the area with spheroids or shapes were taken of chips in bright-field, GFP and RFP fluorescence wavelengths. The CellTox green fluorescence dye was captured using the GFP fluorescence and the PKH Red dye was captured using the RFP. […]

[2] = tested on: PDX microcancers (GBM8 patient-derived xenograft glioblastoma cells); assay: On-chip drug testing of PDX microcancer spheroids in microchip hanging drop 3D culture; type: cell-based; details: Homo sapiens; measured on day 9 post cell seeding; drug loaded on day 3; 500 cells/well; 12 wells per concentration, 10 uM to 100 pM
Method: The harvest cells from the xenograft represented the cellular diversity of the PDX brain tumor.
Dasatinib was selected for drug testing, and introduced after 3 days of culture in the chip. […] One process for introducing the drugs on chip is as follows. The chip was kept upright inside mineral oil and centrifuged briefly to bring down the spheroids. Next, appropriate volume of media with drugs is loaded on chip through oil and incubated for 30 minutes to reach a homogeneous concentration. The volume of drugs loaded depends on the number of spheroids being cultured or wells filled with media on chip, which in turn, are defined by the size and numbers of PDMS reservoirs initially used for cell seeding. The volume of media with drugs added is usually 5 times the volume of wells containing spheroids. […] The chip was partitioned as before by using oil, inverted, and daily measurements of green and red fluorescence were taken.

SMILES: Cc1nc(Nc2ncc(C(=O)Nc3c(C)cccc3Cl)s2)cc(N2CCN(CCO)CC2)n1 [Dasatinib]
- IC50 [1]: 95.9 nM
- IC50 [2]: 13.8 nM
